Data reported in ChEMBL document CHEMBL5608222, “Development of 3'-Deoxy-3',4'-didehydro-nucleoside Prodrug Inhibitors of West Nile and Zika Viruses” (ACS Med Chem Lett, 2024).
Active and inactive are the calls of the source. The rule behind the calls is not given here.

Legend:
[1] = Cytotoxicity against african green monkey Vero cells assessed as decrease in cell viability at 0.1 to 1 mM incubated for 5 days by Alamar blue assay; type: toxicity, cell-based; details: chlorocebus sabaeus, 120 h, 1000 µM, dose 0.1-1 mM, time 5 day
[2] = system: Huh-7; experiment: Cytotoxicity against human Huh-7 cells assessed as decrease in cell viability at 0.1 to 1 mM incubated for 5 days by Alamar blue assay; type: toxicity, cell-based; details: huh-7, 120 h, 1000 µM, dose 0.1-1 mM, time 5 day
[3] = system: West Nile virus; experiment: Antiviral activity against WNV infected in Huh-7 cells assessed as log reduction in viral titer at 0.1 mM preincubated for 24 hrs prior to compound washout followed by viral infection for 1 hr again media washout and compound addition for 3 days by neutral red staining based assay; type: functional; details: time 96 hrs
[4] = system: Huh-7; experiment: Cytotoxicity against human Huh-7 cells at 1 mM; type: toxicity, cell-based; details: huh-7, 120 h, 1000 µM, time 5 day
[5] = system: West Nile virus; experiment: Antiviral activity against WNV infected in Huh-7 cells assessed as log reduction in viral titer at 1 mM preincubated for 24 hrs prior to compound washout followed by viral infection for 1 hr again media washout and compound addition for 3 days by neutral red staining based assay; type: functional, organism-based; details: time 96.0 hrs
[6] = Cytotoxicity against african green monkey Vero cells assessed as decrease in cell viability at 0.1 to 1 mM incubated for 2 days by Alamar blue assay; type: toxicity, cell-based; details: chlorocebus sabaeus, 48 h, 1000 µM, dose 0.1-1 mM, time 2 day
[7] = Cytotoxicity against human Huh-7 cells assessed as cell viability at 1 mM incubated for 6 days by neutral red staining based assay; type: toxicity; details: time 6 day, read-out: Activity
[8] = system: Huh-7; experiment: Cytotoxicity against human Huh-7 cells at 0.1 to 1 mM incubated for 6 days by neutral red staining based assay; type: toxicity, cell-based; details: huh-7, 144 h, 1000 µM, dose 0.1-1 mM, time 6 day
[9] = system: West Nile virus; experiment: Antiviral activity against WNV infected in Huh-7 cells assessed as log reduction in viral titer at 0.1 to 1 mM preincubated for 24 hrs prior to compound washout followed by viral infection for 1 hr again media washout and compound addition for 3 days by neutral red staining based assay; type: functional; details: dose 0.1-1 mM; for Activity: time 96.0 hrs
[10] = system: Zika virus; experiment: Antiviral activity against ZIKV infected in Huh-7 cells assessed as reduction in viral titer at 0.1 to 1 mM preincubated for 24 hrs prior to compound washout followed by viral infection for 1 hr again media washout and compound addition for 3 days by neutral red staining based assay; type: functional; details: dose 0.1-1 mM
[11] = system: Huh-7; experiment: Cytotoxicity against human Huh-7 cells assessed as decrease in cell viability at 1 mM incubated for 5 days by Alamar blue assay; type: toxicity, cell-based; details: huh-7, 120 h, 1000 µM, time 5 day
[12] = Cytotoxicity against african green monkey Vero cells assessed as decrease in cell viability at 1 mM incubated for 5 days by Alamar blue assay; type: toxicity, cell-based; details: chlorocebus sabaeus, 120 h, 1000 µM, time 5 day
[13] = system: Zika virus; experiment: Antiviral activity against ZIKV infected in Huh-7 cells assessed as log reduction in viral titer at 1 mM preincubated for 24 hrs prior to compound washout followed by viral infection for 1 hr again media washout and compound addition for 3 days by neutral red staining based assay; type: functional
[14] = system: Zika virus; experiment: Antiviral activity against ZIKV infected in Huh-7 cells assessed as log reduction in viral titer at 0.1 mM preincubated for 24 hrs prior to compound washout followed by viral infection for 1 hr again media washout and compound addition for 3 days by neutral red staining based assay; type: functional; details: for Activity: time 96.0 hrs

In the case of `Nc1ncnc2c1ncn2[C@@H]1OC(CO)=C[C@H]1O`, the Activity [1] is reported as “Non-Toxic”, the Activity [2] is reported as less than 25% and the “log(activity)” value [3] is reported as 1.5. The Activity [4] was “Toxic”, the Activity [5] was “Active” and the Activity [6] was “Toxic”. For the same compound, the viability at 144 h, 1000 µM [7] was 70% and the Activity [8] was “Toxic”.

With `Cc1cn([C@@H]2OC(CO[P@@](=O)(N[C@@H](C)C(=O)OC(C)C)Oc3ccccc3)=C[C@H]2O)c(=O)[nH]c1=O` the Activity [9] was “inactive”, the Activity ([10]; time 96.0 hrs) was “inactive” and the Activity [11] was 50%. For the same compound, the Activity [12] was “Non-Toxic” and the Activity [8] was “Non-Toxic”.

With `CC(C)OC(=O)[C@H](C)N[P@](=O)(OCC1=C[C@@H](O)[C@H](n2ccc(=O)[nH]c2=O)O1)Oc1ccccc1` the Activity ([13]; time 96.0 hrs) was “inactive”, the Activity [9] was “inactive” and the “log(activity)” value ([14]; time 96 hrs) was 2.5. For the same compound, the Activity [11] was 70%, the Activity [12] was “Non-Toxic” and the Activity [8] was “Non-Toxic”.

In the case of `Nc1nc2c(ncn2[C@@H]2OC(CO)=C[C@H]2O)c(=O)[nH]1`, the Activity [1] is reported as “Non-Toxic”, the Activity [2] is reported as “Non-Toxic” and the Activity [9] is reported as “inactive”. The Activity [8] was “Non-Toxic”.

For `CC(C)OC(=O)[C@H](C)N[P@](=O)(OCC1=C[C@@H](O)[C@H](n2cnc3c(N)ncnc32)O1)Oc1ccccc1`, the “log(activity)” value ([9]; time 96 hrs) was 4.8, the Activity ([10]; time 96 hrs) was 100% and the “log(activity)” value [3] was 2.5. For the same compound, the Activity [4] was “Toxic”, the Activity [14] was “Active” and the Activity [5] was “Active”. For the same compound, the viability at 144 h, 1000 µM [7] was 70%, the Activity [11] was 25% and the Activity [12] was 80%. The Activity [8] was “Toxic”.

For `CC(C)OC(=O)[C@H](C)N[P@](=O)(OCC1=C[C@@H](O)[C@H](n2cnc3c(=O)[nH]cnc32)O1)Oc1ccccc1`, the Activity [1] was “Non-Toxic”, the Activity [2] was “Non-Toxic” and the Activity [9] was “inactive”. The Activity ([10]; time 96.0 hrs) was “inactive” and the Activity [8] was “Non-Toxic”.

In the case of `O=c1ccn([C@@H]2OC(CO)=C[C@H]2O)c(=O)[nH]1`, the Activity [1] is reported as “Non-Toxic”, the Activity [2] is reported as “Non-Toxic” and the Activity [9] is reported as “inactive”. The Activity [8] was “Non-Toxic”.

In the case of `CC(C)OC(=O)[C@H](C)N[P@](=O)(OCC1=C[C@@H](O)[C@H](n2cnc3c(=O)[nH]c(N)nc32)O1)Oc1ccccc1`, the “log(activity)” value ([13]; time 96 hrs) is reported as 3.8, the Activity [1] is reported as “Non-Toxic” and the Activity [2] is reported as “Non-Toxic”. For the same compound, the Activity [9] was “inactive”, the Activity [14] was “Active” and the Activity [8] was “Non-Toxic”.

For `O=c1[nH]cnc2c1ncn2[C@@H]1OC(CO)=C[C@H]1O`, the Activity [1] was “Non-Toxic”, the Activity [2] was “Non-Toxic” and the Activity [9] was “inactive”. The Activity [8] was “Non-Toxic”.

In the case of `Cc1cn([C@@H]2OC(CO)=C[C@H]2O)c(=O)[nH]c1=O`, the Activity [1] is reported as “Non-Toxic”, the Activity [2] is reported as “Non-Toxic” and the Activity [9] is reported as “inactive”. The Activity [8] was “Non-Toxic”.
